Reference: patent US5925369A, “Bis alkanoyl esters of carnitine having bactericidal, fungicidal and antiprotozoal activity” (priority 1996, dated 1999)

What was measured:
[1] = system: Trichomonas vaginalis; assay: MIC on protozoa (Trichomonas vaginalis); type: cell-based; details: Metronidazole resistant strains T. vaginalis SS-20 and SS-22 (25 and 50)
Procedure: Protozoal suspensions are prepared from 24-hour cultures grown at 37° C. and 5% CO2 in DIAMOND T.Y.M. broth supplemented with 10% heat-inactivated FCS.
The suspensions are adjusted, in the same medium, to a final concentration of 2.5×10^5 cells/ml in each well of a 96-well microtiter plate. Substance dilutions (0.3 log) are added to the suspensions in order to have a range of final concentrations from 0.19 to 100 mcg/ml. Microtiters are then incubated at 37° C. and 5% CO2 for 24 hours. MIC is referred to as the minimal concentration inhibiting either protozoa or flagella or undulating membrane motility (Cf. JULIANO C., MARTINOTTI M. G., […] P., In vitro effect of microtubule inhibitors on T. vaginalis, Microbiologia, 8:31-42, 1985. LOVGREN T. and SALMELA I., Invitro sensitivity of T. vaginalis and C. albicans to chemotherapeutic agents, Acta Path. Microbiol. Scand.. 86:155-158, 1978).

[2] = system: T. mentagrophytes IDI D1049; assay: Antifungal activity in experimental Tinea pedis in the guinea-pig paw; type: in vivo, Hartley guinea-pig; details: for A (clinical sign score) / D (clinical sign score) / E (clinical sign score): scale 0-3
Description: Twelve male Hartley guinea-pig (C. RIVER), weighing 350-400 gr, have been utilized (3 animals per experimental group).
One clinical isolate (Tricophyton mentagrophytes IDI D 1049, from Immacolata Dermatological Institute of Rome) was utilized.
Microaleuriospores were first harvested by scraping from a 7-day fungal culture grown in Potato dextrose agar, and then resuspended in Sabouraud broth with 0.5% Tween 80.
After washing, the spores were standardized in sterile saline to yield a final concentration of 1.0×10^8 spores/ml.
Each group included 3 animals, and only the left hind paw was inoculated. For the 2 control groups, 3 animals in total were used, as both hind paws of each animal were inoculated.
Filter paper discs (12-mm diameter and 0.3-mm thickness) were covered with aluminum foil in the lower part to prevent the inoculum spreading. This filter was then sticked to a 1×3-cm piece of biadesive plaster, which adhered to a gauze wrapped around the paw.
The filter paper disc was then wetted with 100 μl of the infective suspension, and subsequently fixed to the guinea-pig paw.
The animal paw was tied up with bandage and plaster, and then left in these conditions for 7 days.
Seven days after infection, the infected areas were uncovered and the type of lesion was graded according to an arbitrary scale, as follows:
These "clinical" signs were examined again on days +14, +21, and +31 (day of sacrifice of animals). Three days following the first observation of the type of lesion (day +10), treatments with the differrent formulations were started, and they went on for 20 days (once a day). Two days following the last treatment (day +31), animals were sacrificed and plantar areas of the paws were dissected into 10 parts for each paw.
These sections were plated onto Mycobiotic agar supplemented with Penicillin G and Streptomicin (100 mcg/ml). Volumes of 50 μl of both antibiotics were then added to the plantar sections to prevent any bacterial growth that might interfere with the growth of T. mentagrophytes in the samples under examination.
The data obtained were expressed as the number of microbiologically sterile cutaneous sections over the total examined sections.

[3] = 1.5%, 20 days once a day, day +31

| Structure (SMILES) | MIC of Metronidazole [1] | MIC ([1]; Trichomonas vaginalis, 24 h, read-out: MIC of Metronidazole) | eradication of infection ([2]; 1.5% Miconazole) | A (clinical sign score) ([2]; 1.5%, 7th day) | D (clinical sign score) ([2]; 1.5%, 7th day) | E (clinical sign score) ([2]; 1.5%, 7th day) | A (clinical sign score) ([2]; 1.5%, 14th day) | D (clinical sign score) ([2]; 1.5%, 14th day) | E (clinical sign score) ([2]; 1.5%, 14th day) | A (clinical sign score) ([2]; 1.5%, 21st day) | D (clinical sign score) ([2]; 1.5%, 21st day) | E (clinical sign score) ([2]; 1.5%, 21st day) | A (clinical sign score) ([2]; 1.5%, 31st day) | D (clinical sign score) ([2]; 1.5%, 31st day) | E (clinical sign score) ([2]; 1.5%, 31st day) | sterile samples (%) [2, 3] | sterile samples (n = 30), number over total [2, 3] |
| --- | --- | --- | --- | --- | --- | --- | --- | --- | --- | --- | --- | --- | --- | --- | --- | --- | --- |
| Cc1ncc([N+](=O)[O-])n1CCO [Metronidazole] | 50 µg/mL | 25 µg/mL |  |  |  |  |  |  |  |  |  |  |  |  |  |  |  |
| Clc1ccc(COC(Cn2ccnc2)c2ccc(Cl)cc2Cl)c(Cl)c1 (centres unmarked) [Miconazole, reference compound] |  |  | capable of eradicating infection from all treated samples | 0 | 0 | 0 | 0 | 0 | 0 | 0 | 0 | 0 | 0 | 0 | 0 | 100% | 30/30 |
